In the NIST ThermoML archive (doi:10.1016/j.jct.2015.02.020):

Assays:
[1] = xn = mol fraction of the nth substance listed; settings: 101.3 kPa, Liquid; for viscosity: Falling or rolling sphere viscometry; for speed of sound: Sing-around technique in a fixed-path interferometer; for mass density: Vibrating tube method
[2] = refractive index (Na D-line) (dimensionless); xn = mol fraction of the nth substance listed; settings: 101.3 kPa, Liquid, Standard Abbe refractometry

CC[n+]1ccc(C)cc1.O=S(=O)([N-]S(=O)(=O)C(F)(F)F)C(F)(F)F + O
Settings	mass density, [1] [kg/m3]	refractive index, [2]	speed of sound, [1] [m/s]	viscosity, [1] [mPa·s]
298.15 K, x2 = 0.144	1479.48	1.44235	1266.8	24.89
298.15 K, x2 = 0.201	1476.6	1.44165	1268.3	22.72
298.15 K, x2 = 0.306	1469.91	1.44005	1271.7	19.35
303.15 K, x2 = 0.144	1474.53	1.44089	1255.4	21.05
303.15 K, x2 = 0.201	1471.63	1.44016	1256.8	19.29
303.15 K, x2 = 0.306	1464.89	1.43866	1260.3	16.23
308.15 K, x2 = 0.144	1469.61	1.4394	1244.1	18.04
308.15 K, x2 = 0.201	1466.68	1.43875	1245.5	16.53
308.15 K, x2 = 0.306	1459	1.43719	1249.2	13.95
313.15 K, x2 = 0.144	1464.69	1.43785	1232.9	15.53
313.15 K, x2 = 0.201	1461.75	1.43727	1234.3	14.31
313.15 K, x2 = 0.306	1454.92	1.4355	1238	12.19
318.15 K, x2 = 0.144	1459.79	1.43674	1221.8	13.59
318.15 K, x2 = 0.201	1456.83	1.4359	1223.2	12.58
318.15 K, x2 = 0.306	1449.95	1.4346	1226.8	10.74
323.15 K, x2 = 0.144	1454.91	1.43532	1210.9	12.03
323.15 K, x2 = 0.201	1451.92	1.43441	1212.2	11.15
323.15 K, x2 = 0.306	1444.99	1.43373	1215.7	9.52
328.15 K, x2 = 0.144	1450.05	1.43396	1200.1	10.7
328.15 K, x2 = 0.201	1447.04	1.43298	1201.3	9.939
328.15 K, x2 = 0.306	1440.05	1.4324	1204.7	8.473
333.15 K, x2 = 0.144	1445.21	1.43253	1189.4	9.576
333.15 K, x2 = 0.201	1442.18	1.43159	1190.6	8.902
333.15 K, x2 = 0.306	1435.13	1.43102	1193.9	7.583
338.15 K, x2 = 0.144	1440.39	1.43108	1178.7	8.598
338.15 K, x2 = 0.201	1437.33	1.43016	1179.9	7.999
338.15 K, x2 = 0.306	1430.22	1.42965	1183	6.83
343.15 K, x2 = 0.144	1435.58	1.42964	1168.2	7.76
343.15 K, x2 = 0.201	1432.49	1.42874	1169.3	7.221
343.15 K, x2 = 0.306	1425.33	1.42828	1172.2	–

CC[n+]1ccccc1.O=S(=O)([N-]S(=O)(=O)C(F)(F)F)C(F)(F)F [1-ethylpyridinium bis[(trifluoromethyl)sulfonyl]imide] + O
Settings	mass density, [1] [kg/m3]	refractive index, [2]	speed of sound, [1] [m/s]	viscosity, [1] [mPa·s]
298.15 K, x2 = 0.16	1526.97	1.43876	1270.7	29.14
298.15 K, x2 = 0.213	1523.14	1.43815	1272.3	25.97
298.15 K, x2 = 0.311	1515.34	1.43705	1276	22.45
303.15 K, x2 = 0.16	1521.95	1.4374	1259.7	24.71
303.15 K, x2 = 0.213	1518.1	1.43684	1261.3	22.07
303.15 K, x2 = 0.311	1510.26	1.43552	1265	18.74
308.15 K, x2 = 0.16	1516.97	1.43587	1248.8	21.3
308.15 K, x2 = 0.213	1513.09	1.43539	1250.4	18.95
308.15 K, x2 = 0.311	1505.19	1.43461	1254	16.02
313.15 K, x2 = 0.16	1512	1.4344	1238	18.53
313.15 K, x2 = 0.213	1508.09	1.43415	1239.6	16.4
313.15 K, x2 = 0.311	1500.14	1.43318	1243.2	13.8
318.15 K, x2 = 0.16	1507.04	1.43296	1227.4	16.21
318.15 K, x2 = 0.213	1503.11	1.43277	1228.9	14.34
318.15 K, x2 = 0.311	1495.11	1.43193	1232.4	12.1
323.15 K, x2 = 0.16	1502.11	1.43144	1216.9	14.16
323.15 K, x2 = 0.213	1498.16	1.43144	1218.3	12.71
323.15 K, x2 = 0.311	1490.1	1.43082	1221.8	10.71
328.15 K, x2 = 0.16	1497.2	1.43003	1206.4	12.5
328.15 K, x2 = 0.213	1493.22	1.42994	1207.8	11.35
328.15 K, x2 = 0.311	1485.1	1.42955	1211.2	9.547
333.15 K, x2 = 0.16	1492.3	1.42859	1196.1	11.14
333.15 K, x2 = 0.213	1488.3	1.42857	1197.4	10.18
333.15 K, x2 = 0.311	1480.12	1.42824	1200.7	8.555
338.15 K, x2 = 0.16	1487.43	1.42719	1185.9	9.991
338.15 K, x2 = 0.213	1483.4	1.42725	1187.1	9.164
338.15 K, x2 = 0.311	1475.16	1.42694	1190.3	7.709
343.15 K, x2 = 0.16	1482.56	1.42569	1175.7	9.019
343.15 K, x2 = 0.213	1478.5	1.42589	1176.9	8.282
343.15 K, x2 = 0.311	1470.22	1.42551	1180	6.971
